The record followed here is ChEMBL document CHEMBL1201862, “PubChem BioAssay data set” (2004).

The source made the active and inactive calls.

What all share (assay type): functional
Assay [1] addresses 5'-AMP-activated protein kinase catalytic subunit alpha-1 (Homo sapiens, UniProt Q13131).
Assay [2] addresses Calcium/calmodulin-dependent protein kinase type 1 (Homo sapiens, UniProt Q14012).
Assay [3] has as its target Casein kinase II subunit alpha (Homo sapiens, UniProt P68400).
The target of assay [4] is cAMP-dependent protein kinase catalytic subunit alpha (Homo sapiens, UniProt P17612).
The target in assay [5] is Serine/threonine-protein kinase MRCK alpha (Homo sapiens, UniProt Q5VT25).
Assay [6] addresses Ribosomal protein S6 kinase alpha-3 (Homo sapiens, UniProt P51812).
Assay [7] concerns the target Inhibitor of nuclear factor kappa-B kinase subunit beta (Homo sapiens, UniProt O14920).

Ribosomal protein S6 kinase alpha-3, sequence (P51812 whole entry): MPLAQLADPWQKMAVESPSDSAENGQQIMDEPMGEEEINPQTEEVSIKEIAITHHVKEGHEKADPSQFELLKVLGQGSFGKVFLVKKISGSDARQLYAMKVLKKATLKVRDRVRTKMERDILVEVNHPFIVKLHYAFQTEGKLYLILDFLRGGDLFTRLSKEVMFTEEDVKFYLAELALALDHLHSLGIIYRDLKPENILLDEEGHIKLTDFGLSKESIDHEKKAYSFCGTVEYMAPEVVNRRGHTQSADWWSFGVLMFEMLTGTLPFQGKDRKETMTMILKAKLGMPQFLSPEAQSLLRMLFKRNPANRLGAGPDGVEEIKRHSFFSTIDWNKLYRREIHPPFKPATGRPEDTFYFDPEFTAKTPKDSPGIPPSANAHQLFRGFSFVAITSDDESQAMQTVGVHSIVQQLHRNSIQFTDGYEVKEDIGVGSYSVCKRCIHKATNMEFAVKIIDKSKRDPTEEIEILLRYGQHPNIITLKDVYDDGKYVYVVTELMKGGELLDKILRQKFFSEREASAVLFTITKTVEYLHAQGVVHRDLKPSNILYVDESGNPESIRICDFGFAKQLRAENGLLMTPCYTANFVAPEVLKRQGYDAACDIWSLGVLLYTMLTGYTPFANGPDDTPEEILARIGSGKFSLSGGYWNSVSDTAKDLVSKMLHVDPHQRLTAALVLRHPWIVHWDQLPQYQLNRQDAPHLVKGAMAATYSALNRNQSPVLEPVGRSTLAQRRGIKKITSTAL
Serine/threonine-protein kinase MRCK alpha, sequence (Q5VT25 whole entry): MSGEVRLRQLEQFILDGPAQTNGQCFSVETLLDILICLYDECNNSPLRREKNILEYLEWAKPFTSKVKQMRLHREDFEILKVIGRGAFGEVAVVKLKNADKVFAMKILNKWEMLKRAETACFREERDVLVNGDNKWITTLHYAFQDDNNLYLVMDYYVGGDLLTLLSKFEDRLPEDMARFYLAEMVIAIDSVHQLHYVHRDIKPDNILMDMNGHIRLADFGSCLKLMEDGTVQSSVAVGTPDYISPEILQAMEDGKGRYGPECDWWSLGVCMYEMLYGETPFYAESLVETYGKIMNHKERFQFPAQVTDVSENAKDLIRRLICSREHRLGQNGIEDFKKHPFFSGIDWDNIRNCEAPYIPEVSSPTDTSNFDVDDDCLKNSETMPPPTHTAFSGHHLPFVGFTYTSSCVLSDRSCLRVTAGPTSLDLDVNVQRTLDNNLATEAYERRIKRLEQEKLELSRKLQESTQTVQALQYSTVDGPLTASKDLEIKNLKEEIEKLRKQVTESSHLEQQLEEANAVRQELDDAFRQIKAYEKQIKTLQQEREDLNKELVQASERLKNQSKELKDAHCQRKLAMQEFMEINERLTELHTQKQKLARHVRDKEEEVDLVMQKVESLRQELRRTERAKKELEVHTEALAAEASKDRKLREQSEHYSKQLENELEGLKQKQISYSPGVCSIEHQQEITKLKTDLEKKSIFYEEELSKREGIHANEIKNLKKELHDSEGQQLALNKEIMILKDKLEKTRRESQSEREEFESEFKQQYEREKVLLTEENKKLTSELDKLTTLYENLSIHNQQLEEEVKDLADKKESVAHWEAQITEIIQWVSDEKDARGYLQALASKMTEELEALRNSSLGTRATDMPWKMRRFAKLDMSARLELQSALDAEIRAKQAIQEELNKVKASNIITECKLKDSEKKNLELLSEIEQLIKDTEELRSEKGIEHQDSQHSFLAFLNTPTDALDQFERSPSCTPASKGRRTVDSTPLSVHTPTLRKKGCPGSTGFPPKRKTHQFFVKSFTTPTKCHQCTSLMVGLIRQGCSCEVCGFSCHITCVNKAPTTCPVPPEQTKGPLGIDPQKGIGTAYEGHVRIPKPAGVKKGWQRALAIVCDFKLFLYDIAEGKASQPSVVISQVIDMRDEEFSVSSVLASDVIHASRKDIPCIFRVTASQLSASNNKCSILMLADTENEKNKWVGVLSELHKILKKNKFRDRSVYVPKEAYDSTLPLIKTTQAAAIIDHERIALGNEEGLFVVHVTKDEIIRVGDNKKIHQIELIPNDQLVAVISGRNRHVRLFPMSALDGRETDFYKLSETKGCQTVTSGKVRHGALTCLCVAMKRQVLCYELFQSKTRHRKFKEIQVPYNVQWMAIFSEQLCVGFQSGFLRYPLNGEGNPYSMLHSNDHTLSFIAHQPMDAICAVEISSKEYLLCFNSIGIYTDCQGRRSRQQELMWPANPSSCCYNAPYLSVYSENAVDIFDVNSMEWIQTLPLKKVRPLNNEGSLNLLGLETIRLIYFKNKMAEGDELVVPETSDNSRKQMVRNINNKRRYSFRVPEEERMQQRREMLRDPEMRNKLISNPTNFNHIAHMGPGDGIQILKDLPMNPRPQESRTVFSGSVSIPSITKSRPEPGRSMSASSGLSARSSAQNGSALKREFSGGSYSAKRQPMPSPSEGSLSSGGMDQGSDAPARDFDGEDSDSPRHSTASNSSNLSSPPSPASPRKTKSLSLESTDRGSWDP
5'-AMP-activated protein kinase catalytic subunit alpha-1, sequence (Q13131 whole entry): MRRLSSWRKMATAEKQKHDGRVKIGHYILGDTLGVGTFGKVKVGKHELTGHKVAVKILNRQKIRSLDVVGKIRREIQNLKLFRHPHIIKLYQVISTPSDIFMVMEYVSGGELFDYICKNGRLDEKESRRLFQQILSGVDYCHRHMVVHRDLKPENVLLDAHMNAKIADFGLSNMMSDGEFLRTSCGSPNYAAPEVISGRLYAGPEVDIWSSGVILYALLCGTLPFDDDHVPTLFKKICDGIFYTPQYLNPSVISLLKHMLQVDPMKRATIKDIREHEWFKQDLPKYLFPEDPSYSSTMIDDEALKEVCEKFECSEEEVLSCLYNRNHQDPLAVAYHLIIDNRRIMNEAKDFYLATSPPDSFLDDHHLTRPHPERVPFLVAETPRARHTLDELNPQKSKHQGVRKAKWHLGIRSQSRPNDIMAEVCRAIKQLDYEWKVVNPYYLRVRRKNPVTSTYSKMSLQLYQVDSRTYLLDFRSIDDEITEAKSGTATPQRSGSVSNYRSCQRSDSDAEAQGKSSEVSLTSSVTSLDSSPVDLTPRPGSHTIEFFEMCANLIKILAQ
Casein kinase II subunit alpha, sequence (P68400 whole entry): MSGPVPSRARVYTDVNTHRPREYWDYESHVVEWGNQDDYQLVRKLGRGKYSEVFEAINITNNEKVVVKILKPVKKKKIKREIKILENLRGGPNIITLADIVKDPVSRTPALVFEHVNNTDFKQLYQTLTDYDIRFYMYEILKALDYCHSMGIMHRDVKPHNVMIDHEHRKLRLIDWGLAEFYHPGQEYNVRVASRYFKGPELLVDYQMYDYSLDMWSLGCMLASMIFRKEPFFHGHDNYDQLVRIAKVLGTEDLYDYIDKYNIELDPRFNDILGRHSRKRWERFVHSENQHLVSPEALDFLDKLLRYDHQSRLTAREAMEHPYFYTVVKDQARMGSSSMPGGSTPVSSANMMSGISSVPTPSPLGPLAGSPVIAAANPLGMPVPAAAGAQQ
Calcium/calmodulin-dependent protein kinase type 1, sequence (Q14012 whole entry): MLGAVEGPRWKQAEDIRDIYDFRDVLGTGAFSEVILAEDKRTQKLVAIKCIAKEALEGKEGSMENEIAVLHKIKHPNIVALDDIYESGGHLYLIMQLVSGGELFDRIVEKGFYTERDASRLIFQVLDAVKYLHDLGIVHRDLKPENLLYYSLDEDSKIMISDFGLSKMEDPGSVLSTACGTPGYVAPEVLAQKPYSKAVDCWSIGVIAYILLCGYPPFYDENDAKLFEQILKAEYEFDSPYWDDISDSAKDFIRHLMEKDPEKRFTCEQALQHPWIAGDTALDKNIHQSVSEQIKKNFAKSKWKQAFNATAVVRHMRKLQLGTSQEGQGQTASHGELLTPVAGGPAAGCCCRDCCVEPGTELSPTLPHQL
Inhibitor of nuclear factor kappa-B kinase subunit beta, sequence (O14920 whole entry): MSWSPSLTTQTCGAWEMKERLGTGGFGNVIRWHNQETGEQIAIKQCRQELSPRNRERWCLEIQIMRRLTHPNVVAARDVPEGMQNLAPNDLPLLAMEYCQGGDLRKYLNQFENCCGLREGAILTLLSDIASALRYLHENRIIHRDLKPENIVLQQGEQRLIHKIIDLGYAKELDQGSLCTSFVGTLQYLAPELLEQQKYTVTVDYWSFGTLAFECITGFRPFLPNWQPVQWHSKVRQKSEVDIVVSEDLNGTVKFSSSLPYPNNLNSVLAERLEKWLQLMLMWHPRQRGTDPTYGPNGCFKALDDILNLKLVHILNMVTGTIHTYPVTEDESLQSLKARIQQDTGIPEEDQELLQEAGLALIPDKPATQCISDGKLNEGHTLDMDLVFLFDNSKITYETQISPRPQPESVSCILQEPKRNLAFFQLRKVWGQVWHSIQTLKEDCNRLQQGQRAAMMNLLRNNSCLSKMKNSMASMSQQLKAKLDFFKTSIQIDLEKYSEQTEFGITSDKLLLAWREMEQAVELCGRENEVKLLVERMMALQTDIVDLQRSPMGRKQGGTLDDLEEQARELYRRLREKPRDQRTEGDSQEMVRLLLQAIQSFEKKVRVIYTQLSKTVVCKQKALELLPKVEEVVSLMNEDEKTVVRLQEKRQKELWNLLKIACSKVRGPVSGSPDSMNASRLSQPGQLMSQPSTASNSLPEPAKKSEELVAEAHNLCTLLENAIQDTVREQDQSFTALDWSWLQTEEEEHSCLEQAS

Turning to `NCCn1cc(-c2cc(-c3cc4ccccc4s3)c3[nH]ncc3c2)c2nc(N)ncc21`, the Ki in assay [1] was 0.398 µM (active); in assay [2], > 7.94 µM (inactive); in assay [3], > 6.31 µM (inactive); in assay [4], 0.0501 µM (active); in assay [5] it was 3.16 µM (active); in assay [6], 3.16 µM (active). Further, the Ki in assay [7] was 0.251 µM (active).
